Our source for the Km values is publication PMC5989697 (ACS Catalysis, 2018).

Molecules are shown by their SMILES.

In the test the target is T1, eugenol oxidase (EUGO) (Rhodococcus jostii, UniProt Q0SBK1).
T1 sequence (Q0SBK1 1-526): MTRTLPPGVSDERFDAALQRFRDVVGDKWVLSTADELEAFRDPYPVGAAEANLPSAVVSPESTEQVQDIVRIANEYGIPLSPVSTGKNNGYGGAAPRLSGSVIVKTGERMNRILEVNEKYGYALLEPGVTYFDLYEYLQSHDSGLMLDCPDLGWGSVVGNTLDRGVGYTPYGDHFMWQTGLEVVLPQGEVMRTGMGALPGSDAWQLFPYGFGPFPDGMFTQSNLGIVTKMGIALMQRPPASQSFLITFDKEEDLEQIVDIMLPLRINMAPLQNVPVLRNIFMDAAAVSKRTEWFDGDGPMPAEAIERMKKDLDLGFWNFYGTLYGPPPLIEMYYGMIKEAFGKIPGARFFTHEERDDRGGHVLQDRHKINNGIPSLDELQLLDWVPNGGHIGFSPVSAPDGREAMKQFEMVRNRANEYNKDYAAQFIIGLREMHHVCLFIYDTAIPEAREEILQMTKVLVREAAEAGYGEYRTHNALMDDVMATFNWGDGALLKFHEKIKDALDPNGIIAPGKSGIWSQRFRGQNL
The experiment in a line: steady-state kinetics. In kind it is biochemical.

With `C=CCc1cc(OC)c(O)c(OC)c1` [compound 1, 2,6-dimethoxy-4-allylphenol], the Km stood at 0.77 µM.

What is called Km is the substrate concentration at which the rate is half of its maximum.
